Read-outs that look alike come from different tables or passages of the source.
Legend:
MCAO rats = assay: Combined Middle Cerebral and Ipsilateral Common Carotid Occlusion in the Rat (MCAO): collateral zone and hemispheric infarct; assay type: in vivo, Adult male Fisher (F-344) rats; conditions: for response vs control in vivo at 3 mg/kg: 3 mg/kg IP; for response vs control in vivo at 15 mg/kg: 15 mg/kg IP
Excerpt: Occlusion of the proximal part of the middle cerebral artery (MCA) is a common cause of stroke in man and can be accomplished surgically in experimental animals. […] We have combined distal MCA occlusion with ipsilateral common carotid ligation in an attempt to produce reproducible,focal cerebral ischemic infarcts.
The skin on the ventral side of the neck and the left temporal-parietal region was shaved. An incision was made in the neck and the left common carotid artery was doubly ligated and cut between the sutures. The incision was closed with 4-0 silk. Another incision was then made behind the left eye and the skin was held back with retractors. The exposed temporalis muscle was electrocauterized (Jarit Bipolar Coagulator) and partially removed. The upper part of the lower jaw bone was also removed. Deep surgery was performed with the aid of a Zeiss OPMI 99 surgical microscope. A 1 to 2-mm diameter craniotomy was made about 1 mm anterior to where the rostral end of the zygoma fuses to the squamosal bone. To prevent the drill from going through the dura, the burr hole was not drilled completely through the skull. Bone remaining after drilling was removed with forceps. The dura was pierced and reflected with a fine probe.
At this point the rat was injected with 0.3 ml of 2% Evans blue dye in saline via the tail vein. Evans blue binds to serum albumin and will not pass the blood-brain barrier unless damage has occurred, such as damage induced by ischemia. A small hook was then positioned under the MCA and the MCA was lifted away from the cortex. A jeweler-type bipolar forceps was introduced and the MCA was electrocauterized and separated. Gelfoam was put over the craniotomy and the wound was closed with 4-0 silk. The rats were then taken off the halothane and were allowed to wake up. Total anesthesia time was typically 30 minutes.
On Day 2 following MCA occlusion, the rats were anesthetized with ketamine (150 mg/kg, IP) and sacrificed. Cerebral tissue fixation was initiated by perfusion of 10% neutralized, buffered formalin for five minutes. Brains were removed and stored in the fixative until analysis.
For evaluation of the extent of cerebral ischemic injury, the brains were cut coronally in three different locations. The first section was at the level where the MCA was ligated. The other two sections were 2 mm anterior and 2 mm posterior to the first. Using an ausJena Citoval microscope with a drawing tube and an Apple II plus computer with a Houston Instrument digitizing pad, a software routine to measure the area of the ischemic damage as indicated by the extent of Evans blue tissue extravasation was employed. The software package was purchased from R&M Biometrics (Nashville, Tenn.) and is titled Bioquant II. From the lesion areas (mm^2) obtained from the Bioquant II program, we estimated the hemispheric extent (mm^3) of ischemic damage between the anterior and posterior sections by computing and adding the volume of two truncated cones.
The Bioquant II image analysis system was used to quantitate ischemic injury as it was identified by Evans blue extravasation.

rats = assay: Anesthesia in rats after dosing (impaired consciousness, lack of righting reflex; duration); assay type: in vivo, Adult male Fisher (F-344) rats; conditions: time from administration to regaining consciousness
Excerpt: The duration of anesthesia is that time elapsed between administration of the test substance and the test animal regaining consciousness.

[1] = 10 mg/kg IP, 30 min and 24 h after occlusion, historical controls, read-out: Collateral Zone Infarct (% of Control)
[2] = 10 mg/kg IP, 30 min and 24 h after occlusion, historical controls, read-out: Hemispheric Infarct (% of Control)
[3] = 30 mg/kg IP, 30 min and 24 h after occlusion, historical controls, read-out: Collateral Zone Infarct (% of Control)
[4] = 30 mg/kg IP, 30 min and 24 h after occlusion, historical controls, read-out: Hemispheric Infarct (% of Control)
[5] = 30 min and 24 h after occlusion, historical controls, read-out: Collateral Zone Infarct (% of Control)
[6] = 30 min and 24 h after occlusion, historical controls, read-out: Hemispheric Infarct (% of Control)
[7] = ip, read-out: Collateral Zone Infarct (% of Control)
[8] = ip, read-out: Hemispheric Infarct (% of Control)

Nc1nc2c(F)cc(F)cc2s1 [Compound 17, 2-amino-4,6-difluorobenzothiazole]
response vs control in vivo at 10 mg/kg (MCAO rats; [1]): 137% | response vs control in vivo at 10 mg/kg (MCAO rats; [2]): 139% | response vs control in vivo at 30 mg/kg (MCAO rats; [3]): 105% | response vs control in vivo at 30 mg/kg (MCAO rats; [4]): 115%

Nc1nc2ccc(OC(F)(F)F)cc2s1 [Compound 9, 2-amino-6-trifluoromethoxybenzothiazole]
response vs control in vivo at 3 mg/kg (MCAO rats; [5]): 117% | response vs control in vivo at 3 mg/kg (MCAO rats; [6]): 99% | response vs control in vivo at 10 mg/kg (MCAO rats; [1]): 43% | response vs control in vivo at 10 mg/kg (MCAO rats; [2]): 66% | response vs control in vivo at 15 mg/kg (MCAO rats; [5]): 42% | response vs control in vivo at 15 mg/kg (MCAO rats; [6]): 82% | response vs control in vivo at 30 mg/kg (MCAO rats; [3]): 0% | response vs control in vivo at 30 mg/kg (MCAO rats; [4]): 44% | Anesthesia (duration) (rats; 30 mg/kg IP): 1 to 2 h

Cc1cc(C)c2nc(N)sc2c1 [Compound 12, 2-amino-4,6-dimethylbenzothiazole]
response vs control in vivo at 10 mg/kg (MCAO rats; [1]): 91% | response vs control in vivo at 10 mg/kg (MCAO rats; [2]): 79% | response vs control in vivo at 30 mg/kg (MCAO rats; [3]): 68% | response vs control in vivo at 30 mg/kg (MCAO rats; [4]): 76%

CN1CCCC1CCNc1nc2ccccc2s1 (centres unmarked) [Compound 23, 2-[[2-(1-methyl-2-pyrrolidinyl)ethyl]amino]-benzothiazole]
response vs control in vivo at 10 mg/kg (MCAO rats; [1]): 66% | response vs control in vivo at 10 mg/kg (MCAO rats; [2]): 84% | response vs control in vivo at 30 mg/kg (MCAO rats; [3]): 18% | response vs control in vivo at 30 mg/kg (MCAO rats; [4]): 72%

Nc1nc2ccc(Br)cc2s1 [Compound 7, 2-amino-6-bromobenzothiazole]
response vs control in vivo at 10 mg/kg (MCAO rats; [1]): 69% | response vs control in vivo at 10 mg/kg (MCAO rats; [2]): 88% | response vs control in vivo at 30 mg/kg (MCAO rats; [3]): 59% | response vs control in vivo at 30 mg/kg (MCAO rats; [4]): 68% | Anesthesia (duration) (rats; 30 mg/kg IP): > 5 h

Nc1nc2c(C(F)(F)F)cccc2s1 [Compound 16, 2-amino-4-trifluoromethylbenzothiazole]
response vs control in vivo at 10 mg/kg (MCAO rats; [1]): 63% | response vs control in vivo at 10 mg/kg (MCAO rats; [2]): 99% | response vs control in vivo at 30 mg/kg (MCAO rats; [3]): 15% | response vs control in vivo at 30 mg/kg (MCAO rats; [4]): 61%

COc1ccc2sc(N)nc2c1 [Compound 18, 2-amino-5-methoxybenzothiazole]
response vs control in vivo at 10 mg/kg (MCAO rats; [7]): 124% | response vs control in vivo at 30 mg/kg (MCAO rats; [7]): 54% | response vs control in vivo at 10 mg/kg (MCAO rats; [8]): 117% | response vs control in vivo at 30 mg/kg (MCAO rats; [8]): 82%

Cc1cccc2sc(N)nc12 [Compound 14, 2-amino-4-methylbenzothiazole]
response vs control in vivo at 10 mg/kg (MCAO rats; [1]): 69% | response vs control in vivo at 10 mg/kg (MCAO rats; [2]): 72% | response vs control in vivo at 30 mg/kg (MCAO rats; [3]): 40% | response vs control in vivo at 30 mg/kg (MCAO rats; [4]): 54%

Nc1nc2c(ccc3ccccc32)s1 [Compound 20, 2-amino-naptho[1,2-d]thiazole]
response vs control in vivo at 10 mg/kg (MCAO rats; [1]): 63% | response vs control in vivo at 10 mg/kg (MCAO rats; [2]): 84% | response vs control in vivo at 30 mg/kg (MCAO rats; [3]): 81% | response vs control in vivo at 30 mg/kg (MCAO rats; [4]): 92%

CCOc1ccc2nc(N)sc2c1 [Compound 6, 2-amino-6-ethoxybenzothiazole]
response vs control in vivo at 10 mg/kg (MCAO rats; [1]): 94% | response vs control in vivo at 10 mg/kg (MCAO rats; [2]): 115% | response vs control in vivo at 30 mg/kg (MCAO rats; [3]): 16% | response vs control in vivo at 30 mg/kg (MCAO rats; [4]): 59%

CCNc1nc2ccccc2s1 [Compound 21, 2-ethylaminobenzothiazole]
response vs control in vivo at 10 mg/kg (MCAO rats; [1]): 62% | response vs control in vivo at 10 mg/kg (MCAO rats; [2]): 71% | response vs control in vivo at 30 mg/kg (MCAO rats; [3]): 116% | response vs control in vivo at 30 mg/kg (MCAO rats; [4]): 89%

Nc1nc2ccc(C(F)(F)F)cc2s1 [Compound 10, 2-amino-6-trifluoromethylbenzothiazole]
response vs control in vivo at 3 mg/kg (MCAO rats; [5]): 156% | response vs control in vivo at 3 mg/kg (MCAO rats; [6]): 131% | response vs control in vivo at 10 mg/kg (MCAO rats; [1]): 51% | response vs control in vivo at 10 mg/kg (MCAO rats; [2]): 53%

Nc1nc2ccc([N+](=O)[O-])cc2s1 [Compound 8, 2-amino-6-nitrobenzothiazole]
response vs control in vivo at 10 mg/kg (MCAO rats; [1]): 92% | response vs control in vivo at 10 mg/kg (MCAO rats; [2]): 93% | response vs control in vivo at 30 mg/kg (MCAO rats; [3]): 24% | response vs control in vivo at 30 mg/kg (MCAO rats; [4]): 62% | Anesthesia (duration) (rats; 30 mg/kg IP): 4 h

CS(=O)(=O)c1ccc2nc(N)sc2c1 [Compound 4, 2-amino-6-methylsulphonylbenzothiazole]
response vs control in vivo at 10 mg/kg (MCAO rats; [1]): 77% | response vs control in vivo at 10 mg/kg (MCAO rats; [2]): 83% | response vs control in vivo at 30 mg/kg (MCAO rats; [3]): 58% | response vs control in vivo at 30 mg/kg (MCAO rats; [4]): 86%

CSc1ccc2nc(N)sc2c1 [Compound 2, 2-amino-6-methylthiobenzothiazole]
response vs control in vivo at 10 mg/kg (MCAO rats; [1]): 72% | response vs control in vivo at 10 mg/kg (MCAO rats; [2]): 88% | response vs control in vivo at 30 mg/kg (MCAO rats; [3]): 100% | response vs control in vivo at 30 mg/kg (MCAO rats; [4]): 106%

COc1cccc2sc(N)nc12 [Compound 13, 2-amino-4-methoxybenzothiazole]
response vs control in vivo at 3 mg/kg (MCAO rats; [5]): 85% | response vs control in vivo at 3 mg/kg (MCAO rats; [6]): 90% | response vs control in vivo at 10 mg/kg (MCAO rats; [1]): 115% | response vs control in vivo at 10 mg/kg (MCAO rats; [2]): 121% | Anesthesia (duration) (rats; 10 mg/kg IP): > 5 h

c1ccc(CNc2nc3ccccc3s2)cc1 [Compound 22, N-benzyl-2-benzothiazolamine]
response vs control in vivo at 10 mg/kg (MCAO rats; [1]): 56% | response vs control in vivo at 10 mg/kg (MCAO rats; [2]): 76% | response vs control in vivo at 30 mg/kg (MCAO rats; [3]): 98% | response vs control in vivo at 30 mg/kg (MCAO rats; [4]): 89%

Nc1nc2cc(C(F)(F)F)ccc2s1 [Compound 19, 2-amino-5-trifluoromethylbenzothiazole]
response vs control in vivo at 10 mg/kg (MCAO rats; [1]): 48% | response vs control in vivo at 10 mg/kg (MCAO rats; [2]): 63% | response vs control in vivo at 30 mg/kg (MCAO rats; [3]): 53% | response vs control in vivo at 30 mg/kg (MCAO rats; [4]): 79%

— US4971983A, “Substituted 2-aminobenzothiazoles and derivatives useful as cerebrovascular agents” (Warner-Lambert Company, priority 1989, dated 1990)
